Reference: paper PMC7915588, “Polyphyllin D Shows Anticancer Effect through a Selective Inhibition of Src Homology Region 2-Containing Protein Tyrosine Phosphatase-2 (SHP2)” (Molecules, 2021)

Key:
PTPN14 (PTP36) = target: T1, PTPN14 (PTP36) (Homo sapiens, UniProt Q15678); experiment: biochemical; set-up: Fluorogenic phosphatase assay, DiFMUP hydrolysis by recombinant PTPs, initial velocity, Ex/Em 355/460 nm; settings: read-out: Inhibition by 20 µM polyphyllin D (%)
T1 construct: 908-1187
T1 sequence (Q15678 1-1187): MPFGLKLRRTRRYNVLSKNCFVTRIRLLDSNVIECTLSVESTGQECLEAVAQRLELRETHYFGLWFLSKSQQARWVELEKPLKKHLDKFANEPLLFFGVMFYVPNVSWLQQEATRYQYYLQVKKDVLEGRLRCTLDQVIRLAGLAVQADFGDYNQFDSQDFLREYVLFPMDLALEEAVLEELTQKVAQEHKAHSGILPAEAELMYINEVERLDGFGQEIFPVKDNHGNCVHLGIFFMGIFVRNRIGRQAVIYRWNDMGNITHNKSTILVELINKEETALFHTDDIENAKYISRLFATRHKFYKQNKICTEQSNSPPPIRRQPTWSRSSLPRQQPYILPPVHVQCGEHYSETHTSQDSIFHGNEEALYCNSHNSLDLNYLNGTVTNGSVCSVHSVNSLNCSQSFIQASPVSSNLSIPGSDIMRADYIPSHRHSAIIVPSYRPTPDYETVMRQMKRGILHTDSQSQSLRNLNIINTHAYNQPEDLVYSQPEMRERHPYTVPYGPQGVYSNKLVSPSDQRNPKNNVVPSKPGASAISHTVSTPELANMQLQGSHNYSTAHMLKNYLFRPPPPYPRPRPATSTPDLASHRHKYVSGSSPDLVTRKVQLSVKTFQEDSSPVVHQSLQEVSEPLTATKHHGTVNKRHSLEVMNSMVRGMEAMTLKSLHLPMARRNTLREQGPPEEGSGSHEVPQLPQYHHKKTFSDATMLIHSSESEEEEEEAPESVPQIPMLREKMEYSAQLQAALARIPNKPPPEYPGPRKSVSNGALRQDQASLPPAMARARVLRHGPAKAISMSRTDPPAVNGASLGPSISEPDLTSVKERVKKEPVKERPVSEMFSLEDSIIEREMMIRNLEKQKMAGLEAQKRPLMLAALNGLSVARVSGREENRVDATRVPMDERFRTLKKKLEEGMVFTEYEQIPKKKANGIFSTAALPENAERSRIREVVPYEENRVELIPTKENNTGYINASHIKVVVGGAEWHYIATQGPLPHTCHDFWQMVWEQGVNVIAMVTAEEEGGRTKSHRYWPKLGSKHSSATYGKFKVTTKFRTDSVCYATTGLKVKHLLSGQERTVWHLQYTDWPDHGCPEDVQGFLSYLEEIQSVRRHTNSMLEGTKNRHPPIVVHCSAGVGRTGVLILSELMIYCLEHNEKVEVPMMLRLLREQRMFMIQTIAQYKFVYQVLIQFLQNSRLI

PTPN18 (PTP-HSCF) = target: T2, PTPN18 (PTP-HSCF) (Homo sapiens, UniProt Q99952); experiment: biochemical; set-up: Fluorogenic phosphatase assay, DiFMUP hydrolysis by recombinant PTPs, initial velocity, Ex/Em 355/460 nm; settings: read-out: Inhibition by 20 µM polyphyllin D (%)
T2 construct: 1-300
T2 sequence (Q99952 1-460): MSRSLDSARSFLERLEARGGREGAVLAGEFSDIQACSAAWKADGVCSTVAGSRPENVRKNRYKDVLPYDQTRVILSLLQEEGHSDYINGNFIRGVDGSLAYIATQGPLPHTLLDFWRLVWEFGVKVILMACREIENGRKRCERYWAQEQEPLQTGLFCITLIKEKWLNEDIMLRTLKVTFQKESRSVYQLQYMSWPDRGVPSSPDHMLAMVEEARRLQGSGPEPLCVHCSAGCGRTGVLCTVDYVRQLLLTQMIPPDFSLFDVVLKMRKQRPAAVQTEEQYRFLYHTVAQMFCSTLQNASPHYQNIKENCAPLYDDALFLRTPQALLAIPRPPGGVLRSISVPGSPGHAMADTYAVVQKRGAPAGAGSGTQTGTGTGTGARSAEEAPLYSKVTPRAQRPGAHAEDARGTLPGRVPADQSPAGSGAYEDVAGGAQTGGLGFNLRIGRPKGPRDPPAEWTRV

C[C@@H]1CC[C@@]2(OC1)O[C@H]1C[C@H]3[C@@H]4CC=C5C[C@@H](O[C@@H]6O[C@H](CO)[C@@H](O[C@@H]7O[C@@H](CO)[C@H](O)[C@H]7O)[C@H](O)[C@H]6O[C@@H]6O[C@@H](C)[C@H](O)[C@@H](O)[C@H]6O)CC[C@]5(C)[C@H]4CC[C@]3(C)[C@H]1[C@@H]2C [polyphyllin D]
inhibition at 20 µM (PTPN14 (PTP36)): 0% | inhibition at 20 µM (PTPN18 (PTP-HSCF)): 14.2%
